Reference: PMC6615598, “Novel antibiotics effective against gram-positive and -negative multi-resistant bacteria with limited resistance” (PLoS Biology, 2019)
Like-named read-outs stand apart in the source and are kept apart here. Starred links: 1 amine or outer side, 2 acyl side, 3 side chain; linkers in the order of their positions; H or OH if unused. Non-standard residues stand in square brackets, D forms with d. Residues, ends and D or L forms follow the SMILES beside them. azaβ3(1Nal) = O=C(CN(Cc1cccc2ccccc12)N[*:1])[*:2]

How the values were obtained:
E. coli ML-35p [1] = test: Inner membrane permeability, ONPG cleavage; type: cell-based; conditions: concentration near MIC
Method: (§1) Outer and inner membrane permeability was determined on E. coli ML-35p, a lactose permease-deficient strain [8]. Permeation assays were carried out on 100 μl MHB from bacteria cultures grown to 0.15 OD600 (10^7 CFU/ml). Nitrocefin (20 μg/ml) was added to the tested molecules at a concentration near to their MICs, and cleavage was monitored by light absorption at 500 nm (outer membrane monitoring). Inner membrane monitoring of cleavage of ONPG (100 μg/ml) and substrate was monitored at 420 nm. Polymyxin B was a positive control, while a bacterial suspension in MHB was the negative control. Permeation assays were also performed on gram-positive S. aureus membranes (MSSA and MRSA) by fluorescence assay with SYTO Green nucleic acid stain (Life Technologies) in black flat-bottom 96-well microtiter plates (Greiner) in biological triplicate. Bacteria were grown to 0.3–0.4 OD600 in CAMHB at 37°C and centrifuged at 3,500 tr/min for 10 min. The pellet was washed and dissolved in PBS to an absorbance of 0.4 at 600 nm (approximately 2.10^8 CFU/ml). […] The amount of 50 μL of bacteria/SYTO Green mixture was added to each well containing compounds serially diluted in PBS, and fluorescence was measured at 37°C for up to 12 h using a spectrophotometer (BIOTEK, Tungsten-Halogen Lamp) with 485 nm excitation and 525 nm emission wavelengths.

S. aureus 33845 = test: microbe, parasite or virus in culture; conditions: 33845
Method: (10−4 M final concentrations). At selected time intervals, 100 μl of reaction mixture was collected, quenched by 200 μl 95% EtOH, and adjusted at pH 2 to prevent peptide adsorption to serum proteins. […] Supernatants were analyzed by RP-HPLC on an Xbridge C18 column with a linear gradient of water, 0.08% TFA, and acetonitrile with 1% TFA. HPLC peak areas were used to calculate the percentages of intact compound remaining at the various time points. MIC and MBC values were determined in triplicate in many ESKAPE clinical isolates, including a dozen MDR S. aureus, by the broth microdilution method. Peptidomimetics and antibiotics were assayed in a concentration range of 1 to 128 μM. The bacterial inoculum (5 × 10^5 colony-forming units [CFUs]/well) was prepared in MHB or CAMHB (150 μl). A Biotek Synergy 2 spectrophotometer was used to record the results after 18–20 h incubation at 35°C (±2°C). […] After every hour of culture for 4 h, serial dilutions were plated on BHI plates and incubated overnight at 37°C, and then the CFUs were counted and expressed as log CFU/ml. Phosphate-buffered saline (PBS)-exposed S. aureus MRSA was included as a control.
Supplementary file pbio.3000337.s007.docx: S1 Table Antibacterial activity of the 4 peptidomimetics focusing on 9 S. aureus MDR clinical isolates. Clinical isolates BCB/POE and 740404 DUN are from human sepsis. The other strains are from catheter infections or suppurating wounds. Brilacidin was used as a control. MDR, multidrug resistant. (DOCX) Click here for additional data file.

MRSA (Mu3) = test: microbe, parasite or virus in culture; conditions: 15 colonies
Method: For 15 d in MHB, MICs were determined daily for each pseudopeptide and their antibiotic controls. This was done using cells from the well in which the compound concentration was one-half of the MIC (1/2MIC). For each compound, the 1/2MIC well from the previous day’s MIC assay plate was re-suspended and the bacteria grown to a density of about 10^8 cells ml−1. The suspension was diluted in MHB or CAMHB (10^6 cells/ml) and then used to determine the MIC of the same compound determined by micro broth dilution. All MIC measurements were performed in duplicate. Aliquots of the 5 × 10^4 cell/ml dilutions for each 1/2MIC well were periodically plated on MHB and incubated at 35°C for 18 h to verify cell density by colony counts and for visual inspection of colony phenotypes. To control compound stability, peptide solution MICs were determined during and at the end of the 15 d and were compared to cells unexposed to antibiotics. In vivo resistance was also assessed in treated mice (1.5 mg.kg^−1) for 4 d (sepsis) or 6 d (skin abscesses). […] The broth microdilution method was performed as per EUCAST recommendations on 5 independent colonies per mouse (3 mice per set, 15 colonies per drug tested). For severe sepsis and subcutaneous abscesses, in vivo resistance was determined by plating aliquots of crude kidney extracts or abscesses on plates containing 1-, 2-, 4-, or 8-fold the peptide MICs 7 or 3 d post infections, respectively.

E. coli ML-35p [2] = test: Outer membrane permeability, nitrocefin cleavage; type: cell-based; conditions: concentration near MIC
Method: as §1

[3] = parameters: species or system mice; conditions: mouse, in vivo, iv
Method: Control embryos were injected with 1 nl of water. […] Each animal was checked for mortality twice per day. […] RBCs were washed until the supernatant was clear. […] RBCs in PBS were a negative control without hemolysis.
Supplementary file pbio.3000337.s011.docx: S5 Table Mice toxicity assays. Clinical signs observed on Day 1 after IV administration of each of the peptide and pseudopeptides in sets of 3 mice. Not observed symptoms are marked with a dash. (DOCX) Click here for additional data file.

## CC(C)[C@@H]1NC(=O)[C@H](CCCNC(=N)N)NC(=O)[C@H](CCCNC(=N)N)NC(=O)CN(Cc2cccc3ccccc23)NC(=O)[C@H](Cc2ccccc2)NC(=O)CN(Cc2cccc3ccccc23)NC(=O)[C@H](CCCCN)NC1=O [Pep19] (cyclo([azaβ3(1Nal)]F[azaβ3(1Nal)]RRVK))
E. coli ML-35p [1]
  Inner membrane permeation: most active
S. aureus 33845
  MIC: 16 mg/L^-1
MRSA (Mu3); MRSA colonies from kidneys of septic mice, d4, single IV 1.5 mg.kg^−1 at 3 h or 15 h
  MIC: 8 (8.8) μM
MRSA (Mu3); MRSA colonies from mice skin abscess, d6, single IV 1.5 mg.kg^−1 at 24 h
  MIC: 16 (16.2) μM
E. coli ML-35p [2]
  Outer membrane permeation: most active
[3]
  Abdominal breathing, mice with sign: -
  Half-closed eyes, mice with sign: -
  Hindlimbs widespread, mice with sign: 1
  Piloerection, mice with sign: 3
[3]; 2 mg/kg
  Abdominal breathing, mice with sign: -
  Decreased grasping reflex, mice with sign: -
  Dyspnea, mice with sign: -
  Half-closed eyes, mice with sign: -
  Hunched posture, mice with sign: 1
  Hypoactivity, mice with sign: 1
  Hypotonia, mice with sign: -
  Piloerection, mice with sign: 3
  Red-colored ears, mice with sign: -
  Red-colored eyes, mice with sign: -
  Staggering gait, mice with sign: 1
  Sudden startle, mice with sign: -
[3]; […]
  Decreased grasping reflex, mice with sign: -
  Half-closed eyes, mice with sign: -
  Hypotonia, mice with sign: -
  Piloerection, mice with sign: 3
  Red-colored ears, mice with sign: -
  Red-colored eyes, mice with sign: -
